Laboratory results: patent US20110039763A1, “TARGETED ANTIMICROBIAL MOIETIES” (C3 JIAN, INC., priority 2009, published 2011)
Entries after “also recorded” stand apart in the source; their conditions may differ.

Columns and labels:
microorganisms [1] = experiment: Targeting peptide binding to target microorganisms (Tables 3, 10, 12); settings: peptide binding in aqueous buffers that varied with peptide solubility; preferably 1x PBS
Text: In certain embodiments, the targeting moiety comprises one or more targeting peptides that bind particular bacteria, fungi, and/or yeasts, and/or algae, and/or viruses and/or that bind particular groups of bacteria, and/or groups of fungi, and/or groups of yeasts, and/or groups of algae.
In certain embodiments the targeting peptides include peptides comprising or consisting of one or more of the amino acid sequences shown in Table 3 (SEQ ID NOs:13-1566). In various embodiments the peptides include peptides comprising or consisting of the retro, inverso, retro-inverso, and/or beta form of one or more of the amino acid sequences shown in Table 3. Also contemplated are circular permutations of these sequences as well as peptides comprising or consisting of the retro, inverso, retro-inverso, and/or beta form of such circular permutations.
In certain embodiments the targeting peptide can comprise one or more domains capable of binding, specifically binding, or preferentially binding to a microorganism, e.g., a target microbial organism (see, e.g., Table 3). In certain embodiment, the targeting peptide be identified via screening peptide libraries. For example, a phage display peptide library can be screened against a target microbial organism or a desired antigen or epitope thereof. Any peptide identified through such screening can be used as a targeting peptide for the target microbial organism.

microorganisms [2] = experiment: Morphology, biofilm and growth disrupting peptides (Table 5); assay type: cell-based; design: key: A: Peptide aggregates; B: Less hyphal formation; Clumps; Diffuse clumps and small polyps; F: Diffuse growth; H: Thin; I: Growth inhibition; Microcolony formation; Rippled; Small polyps; Thick; W: Halo formation on top, microlonies on bottom
Text: In certain embodiments peptides that induce alterations in phenotype or other biological activities can also be used as antimicrobial effector moieties.

## 1T-3 (VLGIAGGLDAYGELVGGN; Peptide with targeting and/or antimicrobial activity)
Microorganisms [1]
  Target(s) (microorganism bound by the targeting peptide): S. mutans; also recorded: S. gordonii

## 1T-4 (LDAYGELVGGN; Peptide with targeting and/or antimicrobial activity)
Microorganisms [1]
  Target(s) (microorganism bound by the targeting peptide): S. gordonii; also recorded: S. sanguinis; also recorded: S. oralis; also recorded: V. atypica; also recorded: L. casei; also recorded: S. mutans

## 1T-6 (KFINGVLSQFVLERK; Peptide with targeting and/or antimicrobial activity)
Microorganisms [1]
  Target(s) (microorganism bound by the targeting peptide): S. mutans

## 1T-7 (SQRIIEPVKSPQPYPGFSVS; Peptide with targeting and/or antimicrobial activity)
Microorganisms [1]
  Target(s) (microorganism bound by the targeting peptide): M. xanthus

## 1T-8 (FSVAACGEQRAVTFVLLIEDLI; Peptide with targeting and/or antimicrobial activity)
Microorganisms [1]
  Target(s) (microorganism bound by the targeting peptide): M. xanthus

## 1T-9 (WAWAESPRCVSTRSNIHALAFRVEVAALT; Peptide with targeting and/or antimicrobial activity)
Microorganisms [1]
  Target(s) (microorganism bound by the targeting peptide): M. xanthus

## 1T-10 (SPAGLPGDGDEA; Peptide with targeting and/or antimicrobial activity)
Microorganisms [1]
  Target(s) (microorganism bound by the targeting peptide): M. xanthus

## 1T-11 (RISE; Peptide with targeting and/or antimicrobial activity)
Microorganisms [1]
  Target(s) (microorganism bound by the targeting peptide): S. mutans; also recorded: S. epidermidis; also recorded: P. aeruginosa

## 1T-12 (FGNIFKGLKDVIETIVKWTAAK; Peptide with targeting and/or antimicrobial activity)
Microorganisms [1]
  Target(s) (microorganism bound by the targeting peptide): C. xerosis; also recorded: C. striatum; also recorded: S. epidermidis; also recorded: S. mutans

## 1T-13 (FRSPCINNNSLQPPGVYPAR; Peptide with targeting and/or antimicrobial activity)
Microorganisms [1]
  Target(s) (microorganism bound by the targeting peptide): S. aureus; also recorded: S. epidermidis; also recorded: P. aeruginosa

## 1T-14 (ALAGLAGLISGK; Peptide with targeting and/or antimicrobial activity)
Microorganisms [1]
  Target(s) (microorganism bound by the targeting peptide): S. mutans; also recorded: S. aureus; also recorded: S. epidermidis; also recorded: C. xerosis

## 1T-15 (DVILRVEAQ; Peptide with targeting and/or antimicrobial activity)
Microorganisms [1]
  Target(s) (microorganism bound by the targeting peptide): S. mutans

## 1T-16 (IDMR; Peptide with targeting and/or antimicrobial activity)
Microorganisms [1]
  Target(s) (microorganism bound by the targeting peptide): P. aeruginosa

## 1T-17 (NNAIVYIS; Peptide with targeting and/or antimicrobial activity)
Microorganisms [1]
  Target(s) (microorganism bound by the targeting peptide): S. mutans

## 1T-18 (YSKTLHFAD; Peptide with targeting and/or antimicrobial activity)
Microorganisms [1]
  Target(s) (microorganism bound by the targeting peptide): S. aureus; also recorded: S. epidermidis; also recorded: C. striatum; also recorded: P. aeruginosa

## 1T-19 (PGAFRNPQMPRG; Peptide with targeting and/or antimicrobial activity)
Microorganisms [1]
  Target(s) (microorganism bound by the targeting peptide): S. aureus; also recorded: S. epidermidis; also recorded: P. aeruginosa

## 1T-20 (PALVDLSNKEAVWAVLDDHS; Peptide with targeting and/or antimicrobial activity)
Microorganisms [1]
  Target(s) (microorganism bound by the targeting peptide): S. mutans; also recorded: P. aeruginosa

## 1T-21 (YVEEAVRAALKKEARISTEDTPVNLPSFDC; Peptide with targeting and/or antimicrobial activity)
Microorganisms [1]
  Target(s) (microorganism bound by the targeting peptide): S. mutans; also recorded: P. aeruginosa

## 1T-22 (VPLDDGTRRPEVARNRDKDRED; Peptide with targeting and/or antimicrobial activity)
Microorganisms [1]
  Target(s) (microorganism bound by the targeting peptide): S. epidermidis; also recorded: P. aeruginosa

## 1T-23 (PALVDLSNKEAVWAVLDDHS; Peptide with targeting and/or antimicrobial activity)
Microorganisms [1]
  Target(s) (microorganism bound by the targeting peptide): S. mutans; also recorded: P. aeruginosa

## 1T-24 (EEAEEKLAEVSQAVKRLVR; Peptide with targeting and/or antimicrobial activity)
Microorganisms [1]
  Target(s) (microorganism bound by the targeting peptide): P. aeruginosa

## 1T-25 (VGLDVSVLVLFFGLQLLSVLLGAMIR; Peptide with targeting and/or antimicrobial activity)
Microorganisms [1]
  Target(s) (microorganism bound by the targeting peptide): S. aureus; also recorded: S. epidermidis; also recorded: C. xerosis; also recorded: C. striatum; also recorded: P. aeruginosa

## 1T-26 (LTILPTTFFAIIVPILAVAFIAYSGFKIKGIVEHKDQW; Peptide with targeting and/or antimicrobial activity)
Microorganisms [1]
  Target(s) (microorganism bound by the targeting peptide): S. mutans; also recorded: S. aureus; also recorded: S. epidermidis; also recorded: C. jeikeium; also recorded: C. xerosis; also recorded: C. striatum; also recorded: P. aeruginosa

## 1T-27 (ALFVSLEQFLVVVAKSVFALCHSGTLS; Peptide with targeting and/or antimicrobial activity)
Microorganisms [1]
  Target(s) (microorganism bound by the targeting peptide): S. mutans; also recorded: S. aureus; also recorded: S. epidermidis; also recorded: C. jeikeium; also recorded: C. xerosis; also recorded: C. striatum; also recorded: P. aeruginosa

## 1T-28 (VSRDEAMEFIDREWTTLQPAGKSHA; Peptide with targeting and/or antimicrobial activity)
Microorganisms [1]
  Target(s) (microorganism bound by the targeting peptide): P. aeruginosa

## 1T-29 (GSVIKKRRKRMSKKKHRKMLRRTRVQRRKLGK; Peptide with targeting and/or antimicrobial activity)
Microorganisms [1]
  Target(s) (microorganism bound by the targeting peptide): S. epidermidis; also recorded: C. jeikeium; also recorded: C. xerosis; also recorded: C. striatum; also recorded: P. aeruginosa; also recorded: S. mutans; also recorded: S. aureus

## 1T-30 (GKAKPYQVRQVLRAVDKLETRRKKGGR; Peptide with targeting and/or antimicrobial activity)
Microorganisms [1]
  Target(s) (microorganism bound by the targeting peptide): S. aureus; also recorded: S. epidermidis; also recorded: C. xerosis; also recorded: C. striatum; also recorded: P. aeruginosa

## 1T-31 (NATGTDIGEVTLTLGRFS; Peptide with targeting and/or antimicrobial activity)
Microorganisms [1]
  Target(s) (microorganism bound by the targeting peptide): S. mutans; also recorded: P. aeruginosa

## 1T-32 (VSFLAGWLCLGLAAWRLGNA; Peptide with targeting and/or antimicrobial activity)
Microorganisms [1]
  Target(s) (microorganism bound by the targeting peptide): S. mutans

## 1T-33 (VRTLTILVIFIFNYLKSISYKLKQPFENNLAQSMISI; Peptide with targeting and/or antimicrobial activity)
Microorganisms [1]
  Target(s) (microorganism bound by the targeting peptide): S. aureus; also recorded: S. epidermidis; also recorded: C. jeikeium; also recorded: C. xerosis; also recorded: C. striatum; also recorded: P. aeruginosa

## 1T-34 (AFWLNILLTLLGYIPGIVHAVYIIAKR; Peptide with targeting and/or antimicrobial activity)
Microorganisms [1]
  Target(s) (microorganism bound by the targeting peptide): S. aureus; also recorded: S. epidermidis; also recorded: C. jeikeium; also recorded: C. xerosis; also recorded: C. striatum; also recorded: P. aeruginosa

## 1T-35 (EICLTLVFPIRGSYSEAAKFPVPIHIVEDGTVELPK; Peptide with targeting and/or antimicrobial activity)
Microorganisms [1]
  Target(s) (microorganism bound by the targeting peptide): P. aeruginosa

## 1T-36 (VYRHLRFIDGKLVEIRLERK; Peptide with targeting and/or antimicrobial activity)
Microorganisms [1]
  Target(s) (microorganism bound by the targeting peptide): S. aureus; also recorded: S. epidermidis; also recorded: C. jeikeium; also recorded: C. xerosis; also recorded: C. striatum; also recorded: P. aeruginosa

## 1T-37 (YIVGALVILAVAGLIYSMLRKA; Peptide with targeting and/or antimicrobial activity)
Microorganisms [1]
  Target(s) (microorganism bound by the targeting peptide): S. mutans; also recorded: S. aereus; also recorded: S. epidermidis; also recorded: C. jeikeium; also recorded: C. xerosis; also recorded: C. striatum; also recorded: P. aeruginosa

## PF-624 (VFLLDSYCFVKINL; Peptide with targeting and/or antimicrobial activity)
Microorganisms [2]; E. coli
  Organism, effect: E. coli (C)
Microorganisms [2]; M. luteus
  Organism, effect: M. luteus (C)
Microorganisms [2]; MRSA
  Organism, effect: MRSA (C)
Microorganisms [2]; P. mirabilis
  Organism, effect: P. mirabilis (C)
Microorganisms [2]; S. epidermidis
  Organism, effect: S. epidermidis (D)
Microorganisms [2]; S. mutans
  Organism, effect: S. mutans (D)
Microorganisms [2]; S. pneumoniae
  Organism, effect: S. pneumoniae (D)

## PF-670 (chain 1 TVIVAPMHSGV; chain 2 TVIVAPMHSGV; Peptide with targeting and/or antimicrobial activity)
Microorganisms [2]; B. subtilis
  Organism, effect: B. subtilis (H)
Microorganisms [2]; S. pneumoniae
  Organism, effect: S. pneumoniae (H)

## PF-C089 (MPKRHYYKLEAKALQFGLPFAYSPIQLLK; Peptide with targeting and/or antimicrobial activity)
Microorganisms [2]; P. gingivalis
  Organism, effect: P. gingivalis (R)

## PF-C214 (GGHKQLVIEPLVSQ; Peptide with targeting and/or antimicrobial activity)
Microorganisms [2]; F. nucleatum
  Organism, effect: F. nucleatum (T)

## PF-C293 (IIIILPKIYLVCKTV; Peptide with targeting and/or antimicrobial activity)
Microorganisms [2]; F. nucleatum
  Organism, effect: F. nucleatum (T)
Microorganisms [2]; P. gingivalis
  Organism, effect: P. gingivalis (R)
Microorganisms [2]; S. mutans
  Organism, effect: S. mutans (F)
